Reference: patent publication US12415785B2, “Compound modulators of sting” (CTXT PTY LTD, priority 2019, dated 2025)
pEC50, pKd: −log10 of the molar value.

How the values were obtained:
[1] = target: human HAQ isoform of STING (THP-1 STING Lucia ISG cells) (Homo sapiens (Human), UniProt Q86WV6, G230A/H232R/R293Q/R71H); assay: THP-1 STING Lucia ISG reporter cell line assay; format: cell-based; conditions: 24 h incubation, QUANTI-Luc luminescence
In short: (§1)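 THP-1 STING Lucia ISG cells (HAQ STING) or THP-1-Dual KI-hSTING-R232 cells (WT STING) treated 24 h at 37 °C with 11-point, 2.5-fold compound dilutions. ISG-driven Lucia luciferase read by luminescence, normalised to untreated wells and 40 μM ML RR-S2 CDA positive control; EC50 derived.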

human STING (WT) = human STING (WT) (Homo sapiens (Human), UniProt Q86WV6, H232R); assay: Surface plasmon resonance (SPR), STING (WT); format: binding; conditions: biotinylated STING on streptavidin chip, 8° C.
Chain of human STING (WT) (Q86WV6 other isoform, or with tags, fused parts or gaps, stated change not applied): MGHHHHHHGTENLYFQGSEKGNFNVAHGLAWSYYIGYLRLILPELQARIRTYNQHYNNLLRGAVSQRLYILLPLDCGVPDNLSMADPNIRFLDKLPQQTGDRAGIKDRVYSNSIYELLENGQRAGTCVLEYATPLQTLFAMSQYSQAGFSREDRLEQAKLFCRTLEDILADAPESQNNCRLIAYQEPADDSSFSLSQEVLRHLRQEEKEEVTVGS
Procedure: Biophysical experiments were performed with three different recombinant human STING protein variants designated according to allelic nomenclature of Yi et al., (2013). Codon optimized DNA sequences (for expression in Escherichia coli) encoding amino acid residues 149 to 345 (Swiss Prot Q86WV6) of human STING (WT), human STING (HAQ) and human STING (R232H) were synthesised by GenScript USA Inc (Piscataway, New Jersey, USA). These were ligated into a modified pET43a E. coli expression vector designed to encode N-terminal His tag followed by tobacco etch virus protease (TEV) cleavage site and a STING gene sequence. The resulting protein sequences for the three allelic variants are listed below:
Binding interactions of ligands with STING proteins were quantified using Surface Plasmon Resonance (SPR) with a minimally biotinylated STING protein immobilized on a streptavidin chip surface. […] Minimal biotinylation of purified huSTING proteins was performed using a previously described methodology (Chhabra 2012). Briefly, approximately 20 nmol of recombinant STING protein in 1×TBS buffer (25 mM Tris-HCl, pH 7.5, 150 mM NaCl, 5 mM DTT) was mixed with of EZ-Link™ Sulfo-NHS-LC-LC-Biotin (Thermofisher Scientific, cat #21338) at a molar ratio of 1 to 0.6 and incubated on ice for 2 hours. To remove any unreacted biotin reagent, protein/biotin mixture was passed through a Superdex 75 (10/300 GL) column equilibrated with 10 mM HEPES, pH7.4, 150 mM NaCl, 5 mM DTT, 5%[v/v] glycerol. A protein peak containing biotinylated huSTING protein was collected and stored in aliquots at −80° C.
Streptavidin was simultaneously immobilized in all four channels of a CM5 sensor chip docked in a Biacore instrument (either Biacore S200 or Biacore T200, GE Healthcare) as described previously (Zender 2013). Minimally biotinylated STING protein was captured onto a streptavidin coated chip surface at 8° C. in SPR binding buffer (50 mM HEPES, pH 7.4, 150 mM NaCl, 2%[v/v] DMSO) by gradually injecting in a single channel at a constant flow-rate of 2 μL/min until desired capture level was achieved, typically 3000 to 7000 RU (1 RU=1 pg/mm^2).
All binding experiments were performed at 8° C. in SPR binding buffer. To determine binding affinity, compound interaction with immobilized STING protein was analysed using dose-response experiments. Fresh 10 mM DMSO solutions of compound were diluted directly into SPR binding buffer typically to a concentration of 50 μM and then further diluted 2-fold or 3-fold aiming for either a 5- or 7-point concentration series range. Each ligand concentration series was injected at a constant flow rate of 60 μL/min with a 90 second association and a 180 second dissociation time. These were modified for compounds with longer residence times, so that curves could reach steady-state, or so that compound would be fully dissociated before the subsequent injection.
Scrubber 2 (www.biologic.com.au) was utilized for data processing, where signals were referenced against the blank surface (streptavidin+D-biotin) and further corrected for DMSO refractive index change and then “double-referenced” using a buffer-blank injection (Papalia 2006). Responses were fitted to either a 1:1 steady-state affinity model or a 1:1 kinetic model (that included a mass-transport component), available within Scrubber.

[2] = target: WT human STING isoform (THP-1-Dual KI-hSTING-R232 cells) (Homo sapiens (Human), UniProt Q86WV6, H232R); assay: THP-1-Dual KI-hSTING-R232 reporter cell line assay; format: cell-based; conditions: 24 h incubation, QUANTI-Luc luminescence
Chain of WT human STING isoform (THP-1-Dual KI-hSTING-R232 cells) (Q86WV6 whole entry H232R, canonical isoform): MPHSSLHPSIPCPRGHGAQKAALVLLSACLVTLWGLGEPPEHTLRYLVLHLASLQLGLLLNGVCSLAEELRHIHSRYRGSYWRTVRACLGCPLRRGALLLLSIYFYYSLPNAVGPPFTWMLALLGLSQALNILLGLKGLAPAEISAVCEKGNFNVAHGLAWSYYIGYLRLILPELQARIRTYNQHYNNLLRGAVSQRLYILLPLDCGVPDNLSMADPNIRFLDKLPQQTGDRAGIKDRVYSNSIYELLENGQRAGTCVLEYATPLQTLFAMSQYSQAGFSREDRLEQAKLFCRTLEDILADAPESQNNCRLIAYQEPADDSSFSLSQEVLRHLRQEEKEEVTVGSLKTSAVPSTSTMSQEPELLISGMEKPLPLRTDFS
In short: as §1

Chain of human HAQ isoform of STING (THP-1 STING Lucia ISG cells) (Q86WV6 whole entry R71H/G230A/H232R/R293Q, canonical isoform): as the sequence (Q86WV6 whole entry H232R, canonical isoform) above, with R71H, G230A, R293Q counted along it

Row | pEC50 [1] | pKd (human STING (WT)) | pEC50 [2] | SMILES
1 | 6.54 | 5.02 | 6.44 | COc1c(C(N)=O)ccc2c1nc(-c1ccc(Cl)cc1-c1n[nH]c(=O)o1)n2CCn1c(-c2ccc(Cl)cc2-c2n[nH]c(=O)o2)nc2c(OC)c(C(N)=O)ccc21 [Example 17, 1,1′-(Ethane-1,2-diyl)bis(2-(4-chloro-2-(5-oxo-4,5-dihydro-1,3,4-oxadiazol-2-yl)phenyl)-4-methoxy-1H-benzo[d]imidazole-5-carboxamide)]
2 | 6.66 | 6.38 | 6.71 | COc1c(C(N)=O)ccc2c1nc(-c1c(F)cc(Cl)cc1-c1nn[nH]n1)n2CCn1c(-c2c(F)cc(Cl)cc2-c2nn[nH]n2)nc2c(OC)c(C(N)=O)ccc21 [Example 46, 1,1′-(Ethane-1,2-diyl)bis(2-(4-chloro-2-fluoro-6-(2H-tetrazol-5-yl)phenyl)-4-methoxy-1H-benzo[d]imidazole-5-carboxamide)]
3 | 5.80 | 5.23 | 5.86 | COc1c(C(N)=O)ccc2c1nc(-c1c(F)cccc1C(=O)O)n2CCn1c(-c2c(F)cccc2C(=O)O)nc2c(OC)c(C(N)=O)ccc21 [Example 10, 2,2′-(Ethane-1,2-diylbis(5-carbamoyl-4-methoxy-1H-benzo[d]imidazole-1,2-diyl))bis(3-fluorobenzoic acid)]
4 | 6.38 | 6.29 | 6.57 | COc1c(C(N)=O)ccc2c1nc(-c1c(F)cccc1-c1nn[nH]n1)n2CCn1c(-c2c(F)cccc2-c2nn[nH]n2)nc2c(OC)c(C(N)=O)ccc21 [Example 48, 1,1′-(Ethane-1,2-diyl)bis(2-(2-fluoro-6-(2H-tetrazol-5-yl)phenyl)-4-methoxy-1H-benzo[d]imidazole-5-carboxamide)]
5 | 6.87 | 6.12 | 6.72 | COc1c(C(N)=O)ccc2c1nc(-c1c(F)cccc1-c1n[nH]c(=O)o1)n2CCn1c(-c2c(F)cccc2-c2n[nH]c(=O)o2)nc2c(OC)c(C(N)=O)ccc21 [Example 49, 1,1′-(Ethane-1,2-diyl)bis(2-(2-fluoro-6-(5-oxo-4,5-dihydro-1,3,4-oxadiazol-2-yl)phenyl)-4-methoxy-1H-benzo[d]imidazole-5-carboxamide)]

Further lines, the molecule ahead of its results:

Row | SMILES | pEC50 [1] | pKd (human STING (WT)) | pEC50 [2]
6 | COc1c(C(N)=O)ccc2c1nc(-c1ccc(C(F)(F)F)cc1C(=O)O)n2CCn1c(-c2ccc(C(F)(F)F)cc2C(=O)O)nc2c(OC)c(C(N)=O)ccc21 [Example 38, 6,6′-(Ethane-1,2-diylbis(5-carbamoyl-4-methoxy-1H-benzo[d]imidazole-1,2-diyl))bis(3-(trifluoromethyl)benzoic acid)] | < 4.40 | < 4.00 | < 4.40
7 | COc1c(C(N)=O)ccc2c1nc(-c1ccc(C)cc1C(=O)O)n2CCn1c(-c2ccc(C)cc2C(=O)O)nc2c(OC)c(C(N)=O)ccc21 [Example 25, 6,6′-(Ethane-1,2-diylbis(5-carbamoyl-4-methoxy-1H-benzo[d]imidazole-1,2-diyl))bis(3-methylbenzoic acid)] | 5.53 | 3.60 | 5.49
8 | COc1c(C(N)=O)ccc2c1nc(-c1ncc(Cl)cc1C(=O)O)n2CCn1c(-c2ncc(Cl)cc2C(=O)O)nc2c(OC)c(C(N)=O)ccc21 [Example 31, 2,2′-(Ethane-1,2-diylbis(5-carbamoyl-4-methoxy-1H-benzo[d]imidazole-1,2-diyl))bis(5-chloronicotinic acid)] | < 4.40 | 4.06 | < 4.40
9 | COC(=O)c1c(Br)cccc1-c1nc2c(OC)c(C(N)=O)ccc2n1CCn1c(-c2cccc(Br)c2C(=O)OC)nc2c(OC)c(C(N)=O)ccc21 [Example 21, Dimethyl 6,6′-(ethane-1,2-diylbis(5-carbamoyl-4-methoxy-1H-benzo[d]imidazole-1,2-diyl))bis(2-bromobenzoate)] | 5.83 | 5.27 | 5.79
10 | COc1c(C(N)=O)ccc2c1nc(-c1cc(Cl)ccc1-c1nn[nH]n1)n2CCn1c(-c2cc(Cl)ccc2-c2nn[nH]n2)nc2c(OC)c(C(N)=O)ccc21 [Example 42, 1,1′-(Ethane-1,2-diyl)bis(2-(5-chloro-2-(2H-tetrazol-5-yl)phenyl)-4-methoxy-1H-benzo[d]imidazole-5-carboxamide)] | 5.49 | 3.86 | 5.36
11 | COc1c(C(N)=O)ccc2c1nc(-c1ccc(Cl)cc1C(=O)O)n2CCn1c(-c2ccc(Cl)cc2C(=O)O)nc2c(OC)c(C(N)=O)ccc21 [Example 1, 6,6′-(Ethane-1,2-diylbis(5-carbamoyl-4-methoxy-1H-benzo[d]imidazole-1,2-diyl))bis(3-chlorobenzoic acid)] | 5.97 | 3.70 | 6.05
